# From patent publication US6864266B2, “4-piperidinyl alkyl amine derivatives as muscarinic receptor antagonists” (Syntex (U.S.A.) LLC, priority 2001, dated 2005)
# How the values were obtained:
# [1] = target: T1, recombinant human muscarinic receptor m3 (Homo sapiens, UniProt P20309); assay: Radioligand binding studies, [3H]N-methyl scopolamine, scintillation proximity assay; conditions: CHO cell membranes, pIC50 converted to pKi by Cheng-Prusoff
# T1 construct: expressed in transfected cells; host or cells: Chinese hamster ovary (CHO) cells, membrane preparation
# T1 sequence (P20309 whole entry): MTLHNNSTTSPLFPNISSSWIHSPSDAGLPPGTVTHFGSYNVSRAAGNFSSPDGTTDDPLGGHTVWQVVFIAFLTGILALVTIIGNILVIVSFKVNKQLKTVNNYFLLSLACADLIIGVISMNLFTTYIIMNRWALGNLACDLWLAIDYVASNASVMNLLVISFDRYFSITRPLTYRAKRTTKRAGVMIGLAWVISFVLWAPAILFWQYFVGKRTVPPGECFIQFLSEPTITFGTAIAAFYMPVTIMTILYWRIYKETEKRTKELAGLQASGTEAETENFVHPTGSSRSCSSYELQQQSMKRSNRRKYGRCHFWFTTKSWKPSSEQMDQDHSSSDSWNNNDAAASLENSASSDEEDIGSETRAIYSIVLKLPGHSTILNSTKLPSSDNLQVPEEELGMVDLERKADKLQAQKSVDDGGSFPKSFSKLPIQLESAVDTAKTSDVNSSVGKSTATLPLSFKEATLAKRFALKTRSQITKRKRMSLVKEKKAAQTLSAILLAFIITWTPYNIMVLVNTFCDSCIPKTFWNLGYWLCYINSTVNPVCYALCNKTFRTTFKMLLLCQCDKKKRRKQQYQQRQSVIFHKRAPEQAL
# Description: (§1) The compounds of this invention are muscarinic receptor antagonists. The muscarinic receptor affinity of test compounds can be determined by an in vitro receptor binding assay which utilizes a cell membrane preparation from the Chinese hamster ovary cells expressing the recombinant human muscarinic receptors (M1-M5), and is described in more detail in Example 18.
# (§2) The inhibitory activity of compounds of this invention in vitro was determined using a modification of the method described in Hegde, S. S. et al. (1997) Br. J. Pharmacol., 120, 1409-1418.
# (§3) Cell membranes from Chinese hamster ovary cells expressing the recombinant human muscarinic receptors (m1-m5) were employed. The assays were conducted with the radioligand [^3H]N-methyl scopolamine(0.4 nM, specific activity 84 Ci·mmol^−1) in a final volume of 0.25 mL Tris-Krebs buffer. Non-specific binding was defined with 1 μM atropine. Assays were performed using scintillation proximity assay technology. Competition-displacement curves were generated using 10 concentrations of test compounds and were analyzed by iterative curve fitting to a four parameter logistic equation. pIC50 values (−log of the IC50) were converted to pKi values using the Cheng-Prusoff equation.
# [2] = target: T2, recombinant human muscarinic receptor m2 (Homo sapiens, UniProt P08172); assay: as above; conditions: CHO cell membranes, pIC50 converted to pKi by Cheng-Prusoff
# T2 construct: expressed in transfected cells; host or cells: Chinese hamster ovary (CHO) cells, membrane preparation
# T2 sequence (P08172 1-466): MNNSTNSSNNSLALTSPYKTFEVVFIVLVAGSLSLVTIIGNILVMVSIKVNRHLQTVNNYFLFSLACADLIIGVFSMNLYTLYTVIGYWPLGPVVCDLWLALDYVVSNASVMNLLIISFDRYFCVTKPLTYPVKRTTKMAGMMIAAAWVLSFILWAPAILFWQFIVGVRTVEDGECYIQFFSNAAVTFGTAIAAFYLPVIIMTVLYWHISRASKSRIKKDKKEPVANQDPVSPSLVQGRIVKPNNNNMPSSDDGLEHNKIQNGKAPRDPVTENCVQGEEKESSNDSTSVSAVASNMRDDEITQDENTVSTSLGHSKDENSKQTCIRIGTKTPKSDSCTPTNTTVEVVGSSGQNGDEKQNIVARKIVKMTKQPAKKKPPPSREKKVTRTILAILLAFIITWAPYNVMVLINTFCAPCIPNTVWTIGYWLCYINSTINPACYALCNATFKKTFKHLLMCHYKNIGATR
# Description: as §1, §2, §3
Ki [1] [nM],Ki [2] [nM],SMILES
1200,47.9,"CCN(CC1CCN(C(=O)N2CCOCC2)CC1)C1CCc2ccc(NC(=O)c3ccc(S(C)(=O)=O)cc3)cc2C1 (stereo not drawn) [Cpd 2, N-(7-{ethyl-[1-(morpholine-4-carbonyl)-piperidin-4-ylmethyl]-amino}-5,6,7,8-tetrahydro-naphthalen-2-yl)-4-methanesulfonyl-benzamide]"
646,10.5,"CCN(CC1CCN(C(=O)NC(C)C)CC1)C1CCc2ccc(NC(=O)c3ccc(F)cc3)cc2C1 (stereo not drawn) [Cpd 7, 4-({ethyl-[7-(4-fluoro-benzoylamino)-1,2,3,4-tetrahydro-naphthalen-2-yl]-amino}-methyl)-piperidine-1-carboxylic acid isopropylamide]"
102,25.1,"CCCN(CC1CCN(C(=O)NC)CC1)C1CCc2ccc(OC)cc2C1 (stereo not drawn) [Cpd 25, 4-{[(7-methoxy-1,2,3,4-tetrahydro-naphthalen-2-yl)-propyl-amino]-methyl}-piperidine-1-carboxylic acid methylamide]"
331,42.7,"CCCN(CC1CCN(C(=O)c2ccco2)CC1)C1CCc2cc(OC)c(OC)cc2C1 (stereo not drawn) [Cpd 70, (4-{[(6,7-dimethoxy-1,2,3,4-tetrahydro-naphthalen-2-yl)-propyl-amino]-methyl}-piperidin-1-yl)-furan-2-yl-methanone]"
166,12.9,"CCCN(CC1CCN(S(C)(=O)=O)CC1)C1CCc2ccc(N)cc2C1 (stereo not drawn) [Cpd 85, N-(1-methanesulfonyl-piperidin-4-ylmethyl)-N-propyl-1,2,3,4-tetrahydro-naphthalene-2,7-diamine]"
186,5.25,"CCCN(CC1CCN(C(=O)N2CCOCC2)CC1)C1CCc2ccc(N)cc2C1 (stereo not drawn) [Cpd 95, (4-{[(7-amino-1,2,3,4-tetrahydro-naphthalen-2-yl)-propyl-amino]-methyl}-piperidin-1-yl)-morpholin-4-yl-methanone]"
46.8,16.2,"CCCN(CC1CCN(S(C)(=O)=O)CC1)C1CCc2ccc(OCC)cc2C1 (stereo not drawn) [Cpd 104, (7-ethoxy-1,2,3,4-tetrahydro-naphthalen-2-yl)-(1-methanesulfonyl-piperidin-4-ylmethyl)-propyl-amine]"
148,16.2,"CCCN(CC1CCN(C(=O)c2ccno2)CC1)C1CCc2ccc(OS(=O)(=O)C(F)(F)F)cc2C1 (stereo not drawn) [Cpd 107, trifluoro-methanesulfonic acid 7-{[1-(isoxazole-5-carbonyl)-piperidin-4-ylmethyl]-propyl-amino}-5,6,7,8-tetrahydro-naphthalen-2-yl ester]"
51.3,1.26,"CCCN(CC1CCN(C(=O)C2CCNCC2)CC1)C1CCc2ccc(OS(=O)(=O)c3c(C)noc3C)cc2C1 (stereo not drawn) [Cpd 114, 3,5-dimethyl-isoxazole-4-sulfonic acid 7-{[1-(piperidine-4-carbonyl)-piperidin-4-ylmethyl]-propyl-amino}-5,6,7,8-tetrahydro-naphthalen-2-yl ester]"
67.6,21.9,"CCCN(CC1CCN(C(=O)N2CCN(C)CC2)CC1)C1CCc2ccc(OS(=O)(=O)c3c(C)noc3C)cc2C1 (stereo not drawn) [Cpd 115, 3,5-dimethyl-isoxazole-4-sulfonic acid 7-{[1-(4-methyl-piperazine-1-carbonyl)-piperidin-4-ylmethyl]-propyl-amino}-5,6,7,8-tetrahydro-naphthalen-2-yl ester]"
5130,2.51,"CCCN(CCC1CCN(C(=O)C2CCNCC2)CC1)[C@@H]1CCc2ccc(OC)cc2C1 [Cpd 116, (4-{2-[((R)-7-methoxy-1,2,3,4-tetrahydro-naphthalen-2-yl)-propyl-amino]-ethyl}-piperidin-1-yl)-piperidin-4-yl-methanone]"
603,141,"CCCN(CC1CCN(S(C)(=O)=O)CC1)C1CCc2ccc(-c3ccco3)cc2C1 (stereo not drawn) [Cpd 117, (7-furan-2-yl-1,2,3,4-tetrahydro-naphthalen-2-yl)-(1-methanesulfonyl-piperidin-4-ylmethyl)-propyl-amine]"
